Experimental data taken from PMC7913881, “The First Step of Biodegradation of 7-Hydroxycoumarin in Pseudomonas mandelii 7HK4 Depends on an Alcohol Dehydrogenase-Type Enzyme” (International Journal of Molecular Sciences, 2021).

How the values were obtained:
(UniProt A0A890JDX9) = target: T1, (UniProt A0A890JDX9); test: spectrophotometric NADPH oxidation kinetics with purified enzyme; substrate and substrate inhibitor; format: biochemical, Pseudomonas mandelii
T1 construct: gene hcdE; recombinant C-terminally His6-tagged protein
Description: spectrophotometric NADPH oxidation kinetics with purified enzyme; substrate and substrate inhibitor on HcdE | 7-hydroxycoumarin was likely a pseudo-competitive inhibitor characterized by the inhibition constant Ki

[1] = tested on: NC(=O)C1=CN([C@@H]2O[C@H](COP(=O)(O)OP(=O)(O)OC[C@H]3O[C@@H](n4cnc5c(N)ncnc54)[C@H](OP(=O)(O)O)[C@@H]3O)[C@@H](O)[C@H]2O)C=CC1; test: purified protein; conditions: varied: cofactor

T1 sequence (A0A890JDX9 1-376 limits assumed): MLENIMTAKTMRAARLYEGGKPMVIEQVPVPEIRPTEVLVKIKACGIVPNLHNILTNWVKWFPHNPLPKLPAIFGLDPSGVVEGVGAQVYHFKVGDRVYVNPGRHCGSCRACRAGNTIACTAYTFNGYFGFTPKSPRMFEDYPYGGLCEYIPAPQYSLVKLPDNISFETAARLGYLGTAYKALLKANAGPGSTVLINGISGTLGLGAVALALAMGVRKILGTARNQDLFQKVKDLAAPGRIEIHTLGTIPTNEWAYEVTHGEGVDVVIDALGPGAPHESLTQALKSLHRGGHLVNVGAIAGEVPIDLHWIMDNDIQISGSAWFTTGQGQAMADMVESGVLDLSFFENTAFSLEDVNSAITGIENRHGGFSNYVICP

Compound | Ki ((UniProt A0A890JDX9)) | Km [1]
O=c1ccc2ccc(O)cc2o1 [compound 1, 7-hydroxycoumarin] | 22 mM | –
HcdE (Pseudomonas mandelii) | – | 20 µM
